Here are results for one molecule from US8921555B2, “Substituted-1,3,8-triazaspiro[4.5]decane-2,4-diones” (Merck Sharp & Dohme Corp., priority 2009, dated 2014).

Common to all, as to format: biochemical
One assay deals with T1, HIF-PHD2 (Homo sapiens, UniProt Q9GZT9).
T1 construct: FLAG-tagged full length PHD2 expressed in and purified from baculovirus-infected Sf9 cells; FLAG; made in house; host or cells: baculovirus-infected Sf9 cells
Description: Assay for HIF-PHD2 Catalytic Activity (PHD2 Binding Activity).

The target in another assay is HIF-PHD3 (Homo sapiens, UniProt Q9H6Z9). Kind of assay: Inhibition of the catalytic activity of HIF-PHD3. The settings on record: comparison compounds of WO 2008/030412; read-out: IC50 (nM) HIF-PHD-3. How it is done: (§1) To each well of a 96-well plate was added 1 μL of test compound in DMSO and 20 μL of assay buffer (50 mM Tris pH 7.4/0.01% Tween-20/0.1 mg/ml bovine serum albumin/10 μM ferrous sulfate/1 mM sodium ascorbate/20 μg/ml catalase) containing 0.15 μg/ml FLAG-tagged full length PHD2 expressed in and purified from baculovirus-infected Sf9 cells. After a […] at room temperature, the enzymatic reactions were initiated by the addition of 4 μL of substrates (final concentrations of 0.2 μM 2-oxoglutarate and 0.5 μM HIF-1α peptide biotinyl-[…]). After 2 hr at room temperature, the reactions were terminated and signals were developed by the addition of a 25 μL quench/detection mix to a final concentration of 1 mM ortho-phenanthroline, 0.1 mM EDTA, 0.5 nM anti-(His)6 LANCE reagent (Perkin-Elmer Life Sciences), 100 nM AF647-labeled streptavidin (Invitrogen), and 2 μg/ml (His)6-VHL complex (S. Tan(2001) Protein Expr. Purif. 21, 224-234). The ratio of time resolved fluorescence signals at 665 and 620 nm was determined, and percent inhibition was calculated relative to an uninhibited control sample run in parallel.
(§2) Inhibition of the catalytic activity of HIF-PHD1 and HIF-PHD3 can be determined similarly.

A further assay concerns the target HIF-PHD1 (Homo sapiens, UniProt Q96KS0). Description: Inhibition of the catalytic activity of HIF-PHD1. To be noted: comparison compounds of WO 2008/030412; read-out: IC50 (nM) HIF-PHD-1. As to the method:
as §1, §2

Each structure is given as a SMILES string. A value given as a limit tells only on which side of the number the result lay.

T1 sequence (Q9GZT9 whole entry): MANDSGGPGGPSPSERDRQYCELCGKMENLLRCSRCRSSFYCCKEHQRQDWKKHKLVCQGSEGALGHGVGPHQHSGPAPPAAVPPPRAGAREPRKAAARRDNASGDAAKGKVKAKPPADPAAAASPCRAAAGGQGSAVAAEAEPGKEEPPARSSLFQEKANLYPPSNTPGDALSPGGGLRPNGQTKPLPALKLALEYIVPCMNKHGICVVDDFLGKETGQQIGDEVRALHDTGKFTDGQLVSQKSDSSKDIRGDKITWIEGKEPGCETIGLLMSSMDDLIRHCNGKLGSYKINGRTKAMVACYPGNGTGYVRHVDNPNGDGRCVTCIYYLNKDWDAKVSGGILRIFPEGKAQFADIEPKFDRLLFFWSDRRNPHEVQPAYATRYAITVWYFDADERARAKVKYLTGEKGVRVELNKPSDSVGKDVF
Sequence of HIF-PHD3 (Q9H6Z9 whole entry): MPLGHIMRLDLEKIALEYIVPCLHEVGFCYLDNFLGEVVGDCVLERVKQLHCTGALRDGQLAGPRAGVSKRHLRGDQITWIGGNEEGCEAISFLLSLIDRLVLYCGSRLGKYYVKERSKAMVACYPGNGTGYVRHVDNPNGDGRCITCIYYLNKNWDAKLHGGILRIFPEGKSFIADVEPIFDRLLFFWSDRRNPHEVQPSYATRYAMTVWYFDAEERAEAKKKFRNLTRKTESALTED
Sequence of HIF-PHD1 (Q96KS0 whole entry): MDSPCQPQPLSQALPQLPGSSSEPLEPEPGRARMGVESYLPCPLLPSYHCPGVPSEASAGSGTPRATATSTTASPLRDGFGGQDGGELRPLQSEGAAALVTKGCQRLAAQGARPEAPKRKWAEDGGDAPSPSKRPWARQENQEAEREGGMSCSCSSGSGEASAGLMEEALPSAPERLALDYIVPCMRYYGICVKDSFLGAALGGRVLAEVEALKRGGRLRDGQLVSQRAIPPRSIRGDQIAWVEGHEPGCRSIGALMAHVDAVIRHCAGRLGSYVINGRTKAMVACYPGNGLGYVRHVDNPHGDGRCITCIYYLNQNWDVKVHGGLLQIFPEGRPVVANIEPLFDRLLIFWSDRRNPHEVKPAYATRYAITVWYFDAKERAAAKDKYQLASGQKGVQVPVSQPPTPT

In the case of `CC(C)Oc1cccc(CN2CC[C@@]3(C[C@@H]2C)C(=O)N(c2ccccc2)C(=O)N3c2cccc(F)c2)c1` [Egbertson's Example 31], the results for the half-maximal inhibitory concentration (IC50) on HIF-PHD2, on HIF-PHD3 and at HIF-PHD1 were greater than 10 µM, greater than 10000 nM and greater than 10000 nM, respectively.
